From US20240270762A1, “PENICILLIN-BINDING PROTEIN INHIBITORS” (priority 2021, published 2024)
≈ marks a conversion by molar mass, not a printed value.

Key:
[1] = biological target: T1, PBP2 from Neisseria gonorrhoeae (FA19) (Neisseria gonorrhoeae, UniProt P08149); experiment: Bocillin-FL fluorescence polarization competition binding, N. gonorrhoeae PBP2; conditions: fluorescence polarization competition binding assay using Bocillin-FL, read-out: N. gonorrhoeae PBP2 Potency
T1 construct: made in house
T1 sequence (P08149 whole entry): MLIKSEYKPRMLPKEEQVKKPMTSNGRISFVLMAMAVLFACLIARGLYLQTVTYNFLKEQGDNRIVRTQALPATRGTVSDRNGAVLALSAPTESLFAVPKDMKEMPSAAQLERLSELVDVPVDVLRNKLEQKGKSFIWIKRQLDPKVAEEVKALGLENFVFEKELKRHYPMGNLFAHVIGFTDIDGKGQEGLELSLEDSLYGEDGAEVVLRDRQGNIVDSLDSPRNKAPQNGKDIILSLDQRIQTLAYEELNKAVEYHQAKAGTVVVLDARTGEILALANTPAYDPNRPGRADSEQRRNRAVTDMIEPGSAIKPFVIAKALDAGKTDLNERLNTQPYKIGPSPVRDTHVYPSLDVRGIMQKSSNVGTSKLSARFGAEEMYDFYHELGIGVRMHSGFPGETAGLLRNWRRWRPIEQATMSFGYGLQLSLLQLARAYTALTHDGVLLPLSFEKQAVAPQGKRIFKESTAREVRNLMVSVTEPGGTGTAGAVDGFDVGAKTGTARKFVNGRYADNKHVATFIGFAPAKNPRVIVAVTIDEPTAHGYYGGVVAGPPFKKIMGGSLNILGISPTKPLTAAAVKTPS
In short: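 Fluorescence polarization competition with 0.1 μM Bocillin-FL (fluorescent penicillin V) against 0.25 μM N. gonorrhoeae FA19 PBP2 in 50 mM Hepes pH 8.0, 300 mM NaCl, 10% glycerol. Boronic acid inhibitors were preincubated with PBP, then Bocillin-FL was added and FP read (490/520 nm) up to 60 min. EC50 is the concentration halving PBP-bound Bocillin-FL.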

P. aeruginosa ATCC 27853 = experiment: microbe, parasite or virus in culture; assay type: cell-based; conditions: Pseudomonas aeruginosa, ATCC27853, read-out: MIC P. aeruginosa ATCC 27853
A. baumannii ATCC 19606 = experiment: microbe, parasite or virus in culture; assay type: cell-based; conditions: Acinetobacter baumannii, ATCC19606, read-out: MIC, A. baumannii ATCC 19606
N. gonorrhoeae FA1090 = experiment: Liquid broth MIC in Fastidious broth; conditions: Neisseria gonorrhoeae, FA1090, read-out: Minimum Inhibitory Concentration (MIC), N. gonorrhoeae FA 1090
N. gonorrhoeae WHO K = experiment: Liquid broth MIC in Fastidious broth; conditions: Neisseria gonorrhoeae, read-out: Minimum Inhibitory Concentration (MIC), N. gonorrhoeae WHO K
N. gonorrhoeae WHO Z = experiment: Liquid broth MIC in Fastidious broth; conditions: Neisseria gonorrhoeae, read-out: Minimum Inhibitory Concentration (MIC), N. gonorrhoeae WHO Z
Description: Additional antibacterial testing of the series was performed in 8 reference strains of N. gonorrhoeae (ATCC 49226, FA1090, MS 11, WHO G, WHO L, WHO M, WHO K, WHO X, WHO Z, WHO Q, CDC-0197). ATCC 49226, FA1090, MS11, WHO G, WHO L, and WHO M produce wild type or wild-type like PBP2. WHO K, WHO X, WHO Z, WHO Q, and CDC-0197 produce mosaic PBP2. Liquid broth-based assays were used for antibacterial testing of PBP inhibitors in Neisseria gonorrhoeae. Briefly, cryo-preserved bacterial cultures of clinical strains were streaked for isolation on Chocolate Agar (72 g/L (2×) GC Agar Base (BD #228950) and 2% (2×) Hemoglobin was autoclaved at 121° C. for 20 minutes to sterilize. Once cooled to ˜50° C. the 2×GC Agar Base and 2× Hemoglobin solutions are combined and 1% IsoVitaleX Enrichment (BD #211876) was added to the solution). Strains were incubated at 36° C. and 5% CO2 to allow growth of colonies, 24 hours before inoculum preparation. 2-fold serial dilutions of test compounds were conducted in a 96 well plate with a final volume of 75 μL per well at 2-fold the final desired concentration in Fastidious broth (Remel #R07664). For preparation of assay inoculum, a direct suspension was prepared by aseptically swabbing 10-15 colonies from agar plates into culture tubes containing 2 mL of fresh sterile saline. After the dilution plates were set up, direct suspensions were then diluted in a cuvette containing sterile saline and the optical density was measured at 600 nm. Inocula were diluted such that 75 μL of this culture in Fastidious broth results in a starting bacterial concentration of 5×10^5 CFU/mL when added to the dilution plates. The plates were incubated for ˜24 hours at 36° C. and 5% CO2.

N. gonorrhoeae WHO Q = experiment: Liquid broth MIC in Fastidious broth; conditions: Neisseria gonorrhoeae, read-out: Minimum Inhibitory Concentration (MIC), N. gonorrhoeae WHO Q
Description: Liquid broth-based assays were used for antibacterial testing of PBP inhibitors in Neisseria gonorrhoeae. Briefly, cryo-preserved bacterial cultures of clinical strains were streaked for isolation on Chocolate Agar (72 g/L (2×) GC Agar Base (BD #228950) and 2% (2×) Hemoglobin was autoclaved at 121° C. for 20 minutes to sterilize. Once cooled to ˜50° C. the 2×GC Agar Base and 2× Hemoglobin solutions are combined and 1% IsoVitaleX Enrichment (BD #211876) was added to the solution). Strains were incubated at 36° C. and 5% CO2 to allow growth of colonies, 24 hours before inoculum preparation. 2-fold serial dilutions of test compounds were conducted in a 96 well plate with a final volume of 75 μL per well at 2-fold the final desired concentration in Fastidious broth (Remel #R07664). For preparation of assay inoculum, a direct suspension was prepared by aseptically swabbing 10-15 colonies from agar plates into culture tubes containing 2 mL of fresh sterile saline. After the dilution plates were set up, direct suspensions were then diluted in a cuvette containing sterile saline and the optical density was measured at 600 nm. Inocula were diluted such that 75 μL of this culture in Fastidious broth results in a starting bacterial concentration of 5×10^5 CFU/mL when added to the dilution plates. The plates were incubated for ˜24 hours at 36° C. and 5% CO2.

N. gonorrhoeae CDC-0197 = experiment: Liquid broth MIC in Fastidious broth; conditions: Neisseria gonorrhoeae, CDC0197, read-out: Minimum Inhibitory Concentration (MIC), N. gonorrhoeae CDC-0197

Row | SMILES | EC50 [1] [µM] | MIC (P. aeruginosa ATCC 27853) [µg/mL] | MIC (A. baumannii ATCC 19606) [µg/mL] | MIC (N. gonorrhoeae FA1090) [µg/mL] | MIC (N. gonorrhoeae WHO K) [µg/mL] | MIC (N. gonorrhoeae WHO Z) [µg/mL] | MIC (N. gonorrhoeae WHO Q) [µg/mL] | MIC (N. gonorrhoeae CDC-0197) [µg/mL]
1 | O=C(NC(C(=O)N[C@H]1Cc2cccc(C(=O)O)c2OB1O)c1ccc(P(=O)(O)O)cc1)c1ccc(Cl)cn1 (stereo partly drawn) [Example 184, (3R)-3-(2-(5-chloropicolinamido)-2-(4-phosphonophenyl)acetamido)-2-hydroxy-3,4-dihydro-2H-benzo[e][1,2]oxaborinine-8-carboxylic acid] | < 10 | > 128 | > 128 | < 1 | 1 to 2 (≈ 1.79 to 3.57 µM) | < 1 | 1 to 2 (≈ 1.79 to 3.57 µM) | < 1
2 | CS(=O)(=O)N1CCC[C@H]1C(=O)N[C@@H](C(=O)N[C@H]1Cc2cccc(C(=O)O)c2OB1O)c1ccc(P(=O)(O)O)cc1 [Example 44, (R)-2-hydroxy-3-((R)-2-((S)-1-(methylsulfonyl)pyrrolidine-2-carboxamido)-2-(4-phosphonophenyl)acetamido)-3,4-dihydro-2H-benzo[e][1,2]oxaborinine-8-carboxylic acid] | < 10 | > 128 | > 128 | < 1 | 4 to 8 (≈ 6.72 to 13.4 µM) | 1 to 2 (≈ 1.68 to 3.36 µM) | 1 to 2 (≈ 1.68 to 3.36 µM) | 1 to 2 (≈ 1.68 to 3.36 µM)
3 | O=C(O)c1cccc2c1OB(O)[C@@H](NC(=O)C(NC(=O)C1CC1)c1ccc(P(=O)(O)O)cc1)C2 (stereo partly drawn) [Example 30, (3R)-3-(2-(cyclopropanecarboxamido)-2-(4-phosphonophenyl)acetamido)-2-hydroxy-3,4-dihydro-2H-benzo[e][1,2]oxaborinine-8-carboxylic acid] | < 10 | > 128 | > 128 | 4 to 8 (≈ 8.19 to 16.4 µM) | 16 to 32 (≈ 32.8 to 65.5 µM) | 16 to 32 (≈ 32.8 to 65.5 µM) | 16 to 32 (≈ 32.8 to 65.5 µM) | 16 to 32 (≈ 32.8 to 65.5 µM)
